Data taken from publication PMC9090415, “Discovery of small molecule inhibitors of Plasmodium falciparum apicoplast DNA polymerase” (Journal of Enzyme Inhibition and Medicinal Chemistry, 2022).

Target: P. falciparum apicoplast DNA polymerase (Pf-apPOL) (Plasmodium falciparum, UniProt Q8ILY1)
Assay: Fluorescence-based high-throughput DNA polymerase assay (molecular beacon), primary screen and dose-response;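 for % inhibition ApPOL 90': test concentration in µM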;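 for % inhibition apPOL 180': test concentration in µM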
Assay type: biochemical
Details: for DNA Pol: 90 min, 10 µM
Method in brief: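 Single-point screening used 10 µM compound with 20 nM polymerase, 20 nM hairpin substrate and 6 µM dNTPs for 90 min at 25 °C. Confirmatory titrations (2.5–80 µM) followed fluorescence at three times, and IC50 was derived from a fit including a cooperativity term n.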

P. falciparum apicoplast DNA polymerase (Pf-apPOL), sequence (Q8ILY1 entry or part of it): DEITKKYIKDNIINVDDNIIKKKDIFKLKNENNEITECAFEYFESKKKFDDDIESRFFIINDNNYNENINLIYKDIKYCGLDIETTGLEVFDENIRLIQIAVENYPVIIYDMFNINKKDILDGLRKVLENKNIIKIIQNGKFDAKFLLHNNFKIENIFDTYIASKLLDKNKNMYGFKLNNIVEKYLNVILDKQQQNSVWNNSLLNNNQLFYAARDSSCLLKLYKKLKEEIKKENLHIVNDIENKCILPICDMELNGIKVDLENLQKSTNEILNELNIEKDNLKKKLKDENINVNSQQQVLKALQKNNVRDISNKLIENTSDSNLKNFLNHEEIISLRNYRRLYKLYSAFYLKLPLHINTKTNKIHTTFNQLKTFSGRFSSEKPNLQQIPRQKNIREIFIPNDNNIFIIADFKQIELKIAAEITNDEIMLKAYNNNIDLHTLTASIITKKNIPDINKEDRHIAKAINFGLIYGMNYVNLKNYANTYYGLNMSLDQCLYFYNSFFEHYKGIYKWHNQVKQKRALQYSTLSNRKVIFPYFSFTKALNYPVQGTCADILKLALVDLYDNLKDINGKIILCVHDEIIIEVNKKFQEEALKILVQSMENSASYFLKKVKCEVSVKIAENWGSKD

Cc1ccccc1NC(=O)Cn1ccc2c(=O)[nH]ccc21 [Molecule 50, O=C(Cn1ccc2c1cc[nH]c2=O)Nc1ccc(cc1)C]
DNA Pol ('DNA Pol' of the 186 hits list (screen value)): 47 | % inhibition Apo pol 10' (DRC-1, conc 2.5): 6.138% | % inhibition Apo pol 10' (DRC-1, conc 5): 25.5303% | % inhibition Apo pol 10' (DRC-1, conc 10): 50.7772% | % inhibition Apo pol 10' (DRC-1, conc 20): 84.6667% | % inhibition Apo pol 10' (DRC-1, conc 40): 88.6284% | % inhibition Apo pol 10' (DRC-1, conc 80): 86.1182% | % inhibition Apol 90' (DRC-1, 90', conc 2.5): 0% | % inhibition Apol 90' (DRC-1, 90', conc 5): 12.4445% | % inhibition Apol 90' (DRC-1, 90', conc 10): 34.9563% | % inhibition Apol 90' (DRC-1, 90', conc 20): 76.8341% | % inhibition Apol 90' (DRC-1, 90', conc 40): 88.9511% | % inhibition Apol 90' (DRC-1, 90', conc 80): 91.6504% | % inhibition apPOL 180' (DRC-1, 180', conc 2.5): -5.117% | % inhibition apPOL 180' (DRC-1, 180', conc 5): 1.53% | % inhibition apPOL 180' (DRC-1, 180', conc 10): 18.0817% | % inhibition apPOL 180' (DRC-1, 180', conc 20): 64.1474% | % inhibition apPOL 180' (DRC-1, 180', conc 40): 85.8042% | % inhibition apPOL 180' (DRC-1, 180', conc 80): 93.6476% | % inhibition Apo pol 5' (DRC-2, 5', conc 2.5): 8% | % inhibition Apo pol 5' (DRC-2, 5', conc 5): 16% | % inhibition Apo pol 5' (DRC-2, 5', conc 10): 39% | % inhibition Apo pol 5' (DRC-2, 5', conc 20): 47% | % inhibition Apo pol 5' (DRC-2, 5', conc 40): 49% | % inhibition Apo pol 5' (DRC-2, 5', conc 80): 42% | % inhibition Apo pol 5' (DRC-2, 5', concentration 5): 16% | % inhibition Apol 40' (DRC-2, 40', conc 2.5): 5% | % inhibition Apol 40' (DRC-2, 40', conc 5): 16% | % inhibition Apol 40' (DRC-2, 40', conc 10): 44% | % inhibition Apol 40' (DRC-2, 40', conc 20): 64% | % inhibition Apol 40' (DRC-2, 40', conc 40): 70% | % inhibition Apol 40' (DRC-2, 40', conc 80): 67% | % inhibition Apol 40' (DRC-2, 40', concentration 5): 16% | % inhibition ApPOL 90' (DRC-2, 90', conc 2.5): 0.827% | % inhibition ApPOL 90' (DRC-2, 90', conc 5): 13% | % inhibition ApPOL 90' (DRC-2, 90', conc 10): 41% | % inhibition ApPOL 90' (DRC-2, 90', conc 20): 65% | % inhibition ApPOL 90' (DRC-2, 90', conc 40): 75% | % inhibition ApPOL 90' (DRC-2, 90', conc 80): 73% | % inhibition apPOL 180' (DRC-2, 180', conc 2.5): -4% | % inhibition apPOL 180' (DRC-2, 180', conc 5): 2.7% | % inhibition apPOL 180' (DRC-2, 180', conc 10): 29% | % inhibition apPOL 180' (DRC-2, 180', conc 20): 60% | % inhibition apPOL 180' (DRC-2, 180', conc 40): 78% | % inhibition apPOL 180' (DRC-2, 180', conc 80): 78% | % inhibition apPOL 180' (DRC-2, 180', concentration 40): 78% | % inhibition apPOL 180' (DRC-2, 180', concentration 80): 78% | DNA Pol (primary screen value, "DNA Pol"): 47

CCCCCc1c2c(cc(O)c1C(=O)O)OC(=O)c1c(cc(OC)cc1C(=O)CCCC)O2 [Molecule 24]
IC50 (supplemental file 2, sheet IC50 nontoxic compounds, Pf-apPOL): 9.31 µM

N#Cc1c(C2CCCCC2)nc(Sc2ccc(C(F)(F)F)cc2[N+](=O)[O-])[nH]c1=O [Molecule 20, N#Cc1c(=O)[nH]c(nc1C1CCCCC1)Sc1ccc(cc1N(=O)=O)C(F)(F)F]
DNA Pol ('DNA Pol' of the 186 hits list (primary screen result), unit not given): 99 | % inhibition Apo pol 10' (DRC-1, concentration 2.5): 13.479% | % inhibition Apo pol 10' (DRC-1, concentration 5): 22.3075% | % inhibition Apo pol 10' (DRC-1, concentration 10): 58.5642% | % inhibition Apo pol 10' (DRC-1, concentration 20): 88.1341% | % inhibition Apo pol 10' (DRC-1, concentration 40): 96.8636% | % inhibition Apo pol 10' (DRC-1, concentration 80): 98.9889% | % inhibition Apol 90' (DRC-1, 90', concentration 2.5): 11.5568% | % inhibition Apol 90' (DRC-1, 90', concentration 5): 20.2551% | % inhibition Apol 90' (DRC-1, 90', concentration 10): 55.7655% | % inhibition Apol 90' (DRC-1, 90', concentration 20): 84.5767% | % inhibition Apol 90' (DRC-1, 90', concentration 40): 95.5899% | % inhibition Apol 90' (DRC-1, 90', concentration 80): 98.5408% | % inhibition apPOL 180' (DRC-1, 180', concentration 2.5): 4.639% | % inhibition apPOL 180' (DRC-1, 180', concentration 5): 10.6134% | % inhibition apPOL 180' (DRC-1, 180', concentration 10): 43.2916% | % inhibition apPOL 180' (DRC-1, 180', concentration 20): 78.9137% | % inhibition apPOL 180' (DRC-1, 180', concentration 40): 94.1749% | % inhibition apPOL 180' (DRC-1, 180', concentration 80): 98.1002% | % inhibition Apo pol 5' (DRC-2, 5', concentration 20 (unit not given)): 55% | % inhibition Apol 40' (DRC-2, 40', concentration 10 (unit not given)): 55% | % inhibition ApPOL 90' (DRC-2, 90', concentration 40 (unit not given)): 77% | % inhibition apPOL 180' (DRC-2, 180', concentration 40 (unit not given)): 77% | % inhibition Apo pol 5' (DRC-2, 5', concentration 2.5): 3.66% | % inhibition Apo pol 5' (DRC-2, 5', concentration 5): 11% | % inhibition Apo pol 5' (DRC-2, 5', concentration 10): 43% | % inhibition Apo pol 5' (DRC-2, 5', concentration 20): 55% | % inhibition Apo pol 5' (DRC-2, 5', concentration 40): 60% | % inhibition Apo pol 5' (DRC-2, 5', concentration 80): 61% | % inhibition Apol 40' (DRC-2, 40', concentration 2.5): 6.56% | % inhibition Apol 40' (DRC-2, 40', concentration 5): 16% | % inhibition Apol 40' (DRC-2, 40', concentration 10): 55% | % inhibition Apol 40' (DRC-2, 40', concentration 20): 68% | % inhibition Apol 40' (DRC-2, 40', concentration 40): 75% | % inhibition Apol 40' (DRC-2, 40', concentration 80): 78% | % inhibition ApPOL 90' (DRC-2, 90', concentration 2.5): 4.51% | % inhibition ApPOL 90' (DRC-2, 90', concentration 5): 13% | % inhibition ApPOL 90' (DRC-2, 90', concentration 10): 54% | % inhibition ApPOL 90' (DRC-2, 90', concentration 20): 69% | % inhibition ApPOL 90' (DRC-2, 90', concentration 40): 77% | % inhibition ApPOL 90' (DRC-2, 90', concentration 80): 82% | % inhibition apPOL 180' (DRC-2, 180', concentration 2.5): -0.258% | % inhibition apPOL 180' (DRC-2, 180', concentration 5): 7% | % inhibition apPOL 180' (DRC-2, 180', concentration 10): 46% | % inhibition apPOL 180' (DRC-2, 180', concentration 20): 64% | % inhibition apPOL 180' (DRC-2, 180', concentration 40): 77% | % inhibition apPOL 180' (DRC-2, 180', concentration 80): 85% | DNA Pol (primary screen value of the library well, unit not given): 99
